Experimental data from patent publication US8729264B2, “Agent for prevention and/or treatment of skin diseases” (Kyowa Hakko Kirin Co., Ltd., priority 2007, dated 2014).

Test system: dinitrofluorobenzene-induced ear edema
Experiment: Suppressive action on dinitrofluorobenzene-induced ear edema reaction in mouse
Assay type: in vivo, BALB/c mice (printed BALE/c)
Details: topical, test compound 1% (w/v) in acetone applied to front and back of auricle 1 hr before and 3 hr after induction, auricle thickness 24 hr after induction, female mice, read-out: ear edema suppressive rate (%)
Experimental: 5-Week to 6-week old BALE/c mice (female, supplied by CHARLES RIVER LABORATORIES JAPAN, INC) were purchased and, after quarantine and habituation, those showing satisfactory body weight increase and free of abnormal appearance were used to start the test from 7 weeks of age. The animals were housed and bred in plastic cages (6 mice per cage) in a breeding chamber set at room temperature 19-25° C., humidity 30-70%, 12 hr illumination per day (7 a.m.-7 p.m.), with free access to a commercially available solid feed and water.
One day before the test, the abdomen was shaved, and a solution of dinitrofluorobenzene (manufactured by Nacalai Tesque) in acetone (manufactured by Wako Pure Chemical Industries, Ltd.) {concentration 0.5% [weight (w)/volume (v) %]} was applied to the shaved part of BALE/c mice by 100 μL for sensitization. On day 5 after sensitization, a dinitrofluorobenzene-acetone solution [concentration 0.2% (w/v %)] was applied to the front and the back of the auricle by 10 μL each (total 20 μL) to induce reaction. A test compound dissolved in acetone to the concentration of 1% (w/v %) was applied to the front and the back of the auricle 1 hr before and 3 hr after the induction of reaction each by 10 μL or 40 μL (total 20 μL or 80 μL). After the application, the applied part was air-dried by a dryer.
A group administered with the test compound by coating was taken as a test compound administration group, and a group administered with acetone (solvent) by coating instead of the test compound was taken as a solvent administration group. In addition, a group free of sensitization and induction of reaction and administered with acetone by coating instead of the test compound was taken as a normal group. The thickness of the auricle was measured immediately before induction of reaction and 24 hr after the induction with a dial thickness gauge (manufactured by OZAKI MFG. CO., LTD., G-1A), and the difference between them was taken as ear edema. The ear edema suppressive rate (%) was calculated according to the following formula.

`CS(=O)(=O)NC(=O)c1cnn2c(NCc3ccccc3)c(C(=O)N3CCC(c4ccccc4)CC3)cnc12` [a-1, N-[7-Benzylamino-6-(4-phenylpiperidine-1-carbonyl)pyrazolo[1,5-a]pyrimidine-3-carbonyl]methanesulfonamide] gave an inhibition in vivo at 1 % of 20%.

For `CCS(=O)(=O)NC(=O)c1cnn2c(Nc3ccc(F)cc3C)c(C(=O)N3CCC(c4ccccc4)CC3)cnc12` [a-57, N-[7-(4-Fluoro-2-methylphenylamino)-6-(4-phenylpiperidine-1-carbonyl)pyrazolo[1,5-a]pyrimidine-3-carbonyl]ethanesulfonamide], the inhibition in vivo at 1 % was 35%.

Compound `CCS(=O)(=O)NC(=O)c1cnn2c(Nc3cc(C)ccc3F)c(C(=O)N3CCC(c4ccccc4)CC3)cnc12` [a-59, N-[7-(2-Fluoro-5-methylphenylamino)-6-(4-phenylpiperidine-1-carbonyl)pyrazolo[1,5-a]pyrimidine-3-carbonyl]ethanesulfonamide] has an inhibition in vivo at 1 % of 6%.

Compound `CCS(=O)(=O)NC(=O)c1cnn2c(Nc3cc(C)ccc3F)c(C(=O)N3CCC(c4ccc(F)cc4)CC3)cnc12` [a-81, N-{7-(2-Fluoro-5-methylphenylamino)-6-[4-(4-fluorophenyl)piperidine-1-carbonyl]pyrazolo[1,5-a]pyrimidine-3-carbonyl}ethanesulfonamide] has an inhibition in vivo at 1 % of 25%.

`CCS(=O)(=O)NC(=O)c1cnn2c(Nc3ccc(F)cc3C)c(C(=O)N3CCC(c4ccc(F)cc4)CC3)cnc12` [a-84, N-{7-(4-Fluoro-2-methylphenylamino)-6-[4-(4-fluorophenyl)piperidine-1-carbonyl]pyrazolo[1,5-a]pyrimidine-3-carbonyl}ethanesulfonamide] gave an inhibition in vivo at 1 % of 25%.

`CS(=O)(=O)NC(=O)c1cnn2c(NCc3ccccc3)c(C(=O)N3CCC(F)(c4ccccc4)CC3)cnc12` [a-96, N-[7-Benzylamino-6-(4-fluoro-4-phenylpiperidine-1-carbonyl)pyrazolo[1,5-a]pyrimidine-3-carbonyl]methanesulfonamide] gave an inhibition in vivo at 1 % of 10%.

`O=C(NS(=O)(=O)C1CC1)c1cnn2c(NCc3ccccc3)c(C(=O)N3CCC4(CC3)COc3ccccc34)cnc12` [a-126, N-[7-Benzylamino-6-(2H-spiro[benzofuran-3,4′-piperidine]-1′-ylcarbonyl)pyrazolo[1,5-a]pyrimidine-3-carbonyl]cyclopropanesulfonamide] was tested, and the inhibition in vivo at 1 % was 10%.

`CCS(=O)(=O)NC(=O)c1cnn2c(Nc3cc(C)ccc3C)c(C(=O)N3CCC4(CC3)COc3cc(F)ccc34)cnc12` [a-137, N-[7-(2,5-Dimethylphenylamino)-6-(6-fluoro-2H-spiro[benzofuran-3,4′-piperidine]-1′-ylcarbonyl)pyrazolo[1,5-a]pyrimidine-3-carbonyl]ethanesulfonamide] was tested, and the inhibition in vivo at 1 % was 5%.
